Assay results published in ChEMBL document CHEMBL4038287, “Design, synthesis, and in vitro evaluation of novel antifungal triazoles” (2017).
Converted amounts (≈) assume the structure as drawn.

Key:
Format in all cases: functional
[1] = test system: Trichophyton rubrum; assay: Antifungal activity against Trichophyton rubrum isolate cmccftla by micro-broth dilution method
[2] = test system: Candida parapsilosis; assay: Antifungal activity against Candida parapsilosis isolate 22019 by micro-broth dilution method; settings: Lodderomyces parapsilosis
[3] = test system: Nannizzia gypsea; assay: Antifungal activity against Microsporum gypseum isolate cmccftla by micro-broth dilution method
[4] = test system: Candida albicans; assay: Antifungal activity against Candida albicans isolate SC5314 by micro-broth dilution method
[5] = test system: Nakaseomyces glabratus; assay: Antifungal activity against Candida glabrata isolate 537 by micro-broth dilution method
[6] = test system: Aspergillus fumigatus; assay: Antifungal activity against Aspergillus fumigatus isolate 7544 by micro-broth dilution method
[7] = test system: Candida albicans; assay: Antifungal activity against Candida albicans isolate Y0109 by micro-broth dilution method
[8] = test system: Cryptococcus neoformans; assay: Antifungal activity against Cryptococcus neoformans isolate 32605 by micro-broth dilution method

SMILES	MIC80 [1] [µg/mL]	MIC80 [2] [µg/mL]	MIC80 [3] [µg/mL]	MIC80 [4] [µg/mL]	MIC80 [5] [µg/mL]	MIC80 [6] [µg/mL]	MIC80 [7] [µg/mL]	MIC80 [8] [µg/mL]
C[C@@H](c1cc(-c2ccc(S(C)(=O)=O)cc2)no1)[C@](O)(Cn1cncn1)c1ccc(F)cc1F	1 (≈ 2.11 µM)	0.125 (≈ 0.263 µM)	4 (≈ 8.43 µM)	0.125 (≈ 0.263 µM)	0.25 (≈ 0.527 µM)	8 (≈ 16.9 µM)	0.125 (≈ 0.263 µM)	0.25 (≈ 0.527 µM)
C[C@@H](c1cc(-c2ccccc2F)no1)[C@](O)(Cn1cncn1)c1cc(F)ccc1F	2 (≈ 4.83 µM)	1 (≈ 2.41 µM)	> 8	0.5 (≈ 1.21 µM)	0.0625 (≈ 0.151 µM)	> 8	0.5 (≈ 1.21 µM)	0.0625 (≈ 0.151 µM)
C[C@@H](c1cc(-c2ccc(Cl)cc2F)no1)[C@](O)(Cn1cncn1)c1ccc(F)cc1F	0.25 (≈ 0.557 µM)	0.125 (≈ 0.279 µM)	2 (≈ 4.46 µM)	0.125 (≈ 0.279 µM)	0.0156 (≈ 0.0348 µM)	8 (≈ 17.8 µM)	0.125 (≈ 0.279 µM)	0.0313 (≈ 0.0697 µM)
C[C@@H](c1cc(-c2cc(F)ccc2F)no1)[C@](O)(Cn1cncn1)c1cc(F)ccc1F	8 (≈ 18.5 µM)	1 (≈ 2.31 µM)	> 8	1 (≈ 2.31 µM)	0.125 (≈ 0.289 µM)	> 8	0.5 (≈ 1.16 µM)	0.125 (≈ 0.289 µM)
C[C@@H](c1cc(-c2ccc(F)c(F)c2)no1)[C@](O)(Cn1cncn1)c1ccc(F)cc1F	0.5 (≈ 1.16 µM)	0.125 (≈ 0.289 µM)	4 (≈ 9.25 µM)	0.125 (≈ 0.289 µM)	0.0156 (≈ 0.0361 µM)	8 (≈ 18.5 µM)	0.125 (≈ 0.289 µM)	0.125 (≈ 0.289 µM)
C[C@@H](c1cc(-c2c(F)ccc(F)c2F)no1)[C@](O)(Cn1cncn1)c1ccc(F)cc1F	0.0625 (≈ 0.139 µM)	0.125 (≈ 0.278 µM)	0.5 (≈ 1.11 µM)	0.25 (≈ 0.555 µM)	0.0625 (≈ 0.139 µM)	2 (≈ 4.44 µM)	0.125 (≈ 0.278 µM)	0.0625 (≈ 0.139 µM)
C[C@@H](c1cc(-c2ccc(Cl)c(F)c2)no1)[C@](O)(Cn1cncn1)c1ccc(F)cc1F	0.5 (≈ 1.11 µM)	0.5 (≈ 1.11 µM)	4 (≈ 8.91 µM)	0.0313 (≈ 0.0697 µM)	0.25 (≈ 0.557 µM)	> 8	0.0156 (≈ 0.0348 µM)	0.25 (≈ 0.557 µM)
C[C@@H](c1cc(-c2cccc(F)c2F)no1)[C@](O)(Cn1cncn1)c1cc(F)ccc1F	8 (≈ 18.5 µM)	2 (≈ 4.63 µM)	> 8	0.5 (≈ 1.16 µM)	0.125 (≈ 0.289 µM)	> 8	0.5 (≈ 1.16 µM)	0.125 (≈ 0.289 µM)
C[C@@H](c1cc(-c2cc(F)ccc2F)no1)[C@](O)(Cn1cncn1)c1ccc(F)cc1F	0.125 (≈ 0.289 µM)	0.125 (≈ 0.289 µM)	1 (≈ 2.31 µM)	0.0625 (≈ 0.145 µM)	0.0625 (≈ 0.145 µM)	4 (≈ 9.25 µM)	0.0625 (≈ 0.145 µM)	0.125 (≈ 0.289 µM)
C[C@@H](c1cc(-c2ccc(F)c(F)c2)no1)[C@](O)(Cn1cncn1)c1cc(F)ccc1F	1 (≈ 2.31 µM)	0.25 (≈ 0.578 µM)	> 8	0.125 (≈ 0.289 µM)	0.0156 (≈ 0.0361 µM)	> 8	0.125 (≈ 0.289 µM)	0.125 (≈ 0.289 µM)
C[C@@H](c1cc(-c2cc(F)cc(F)c2)no1)[C@](O)(Cn1cncn1)c1ccc(F)cc1F	0.25 (≈ 0.578 µM)	0.25 (≈ 0.578 µM)	2 (≈ 4.63 µM)	0.125 (≈ 0.289 µM)	0.0625 (≈ 0.145 µM)	4 (≈ 9.25 µM)	0.0625 (≈ 0.145 µM)	0.125 (≈ 0.289 µM)
C[C@@H](c1cc(-c2ccc(C#N)cc2)no1)[C@](O)(Cn1cncn1)c1ccc(F)cc1F	0.125 (≈ 0.297 µM)	0.125 (≈ 0.297 µM)	1 (≈ 2.37 µM)	0.25 (≈ 0.593 µM)	0.0625 (≈ 0.148 µM)	8 (≈ 19 µM)	0.25 (≈ 0.593 µM)	0.125 (≈ 0.297 µM)
C[C@@H](c1cc(-c2ccc(OC(F)F)cc2)no1)[C@](O)(Cn1cncn1)c1ccc(F)cc1F	0.125 (≈ 0.27 µM)	0.125 (≈ 0.27 µM)	1 (≈ 2.16 µM)	0.0625 (≈ 0.135 µM)	0.0625 (≈ 0.135 µM)	8 (≈ 17.3 µM)	0.0625 (≈ 0.135 µM)	0.125 (≈ 0.27 µM)
C[C@@H](c1cc(-c2cccc(F)c2F)no1)[C@](O)(Cn1cncn1)c1ccc(F)cc1F	0.125 (≈ 0.289 µM)	0.25 (≈ 0.578 µM)	0.5 (≈ 1.16 µM)	0.0625 (≈ 0.145 µM)	0.125 (≈ 0.289 µM)	2 (≈ 4.63 µM)	0.0625 (≈ 0.145 µM)	0.125 (≈ 0.289 µM)
C[C@@H](c1cc(-c2c(F)cccc2F)no1)[C@](O)(Cn1cncn1)c1cc(F)ccc1F	4 (≈ 9.25 µM)	1 (≈ 2.31 µM)	> 8	0.5 (≈ 1.16 µM)	0.125 (≈ 0.289 µM)	> 8	1 (≈ 2.31 µM)	0.0625 (≈ 0.145 µM)
C[C@@H](c1cc(-c2c(F)cccc2F)no1)[C@](O)(Cn1cncn1)c1ccc(F)cc1F	0.125 (≈ 0.289 µM)	0.125 (≈ 0.289 µM)	1 (≈ 2.31 µM)	0.125 (≈ 0.289 µM)	0.0625 (≈ 0.145 µM)	2 (≈ 4.63 µM)	0.0625 (≈ 0.145 µM)	0.125 (≈ 0.289 µM)
C[C@@H](c1cc(-c2ccc(F)cc2)no1)[C@](O)(Cn1cncn1)c1cc(F)ccc1F	1 (≈ 2.41 µM)	0.25 (≈ 0.603 µM)	> 8	0.125 (≈ 0.302 µM)	0.0625 (≈ 0.151 µM)	> 8	0.125 (≈ 0.302 µM)	0.0625 (≈ 0.151 µM)
C[C@@H](c1cc(-c2ccccc2F)no1)[C@](O)(Cn1cncn1)c1ccc(F)cc1F	0.0625 (≈ 0.151 µM)	0.125 (≈ 0.302 µM)	0.5 (≈ 1.21 µM)	0.0313 (≈ 0.0755 µM)	0.0313 (≈ 0.0755 µM)	2 (≈ 4.83 µM)	0.0625 (≈ 0.151 µM)	0.125 (≈ 0.302 µM)
C[C@@H](c1cc(-c2ccc(F)cc2F)no1)[C@](O)(Cn1cncn1)c1cc(F)ccc1F	1 (≈ 2.31 µM)	1 (≈ 2.31 µM)	4 (≈ 9.25 µM)	0.25 (≈ 0.578 µM)	0.0625 (≈ 0.145 µM)	> 8	0.125 (≈ 0.289 µM)	0.0625 (≈ 0.145 µM)
C[C@@H](c1cc(-c2ccc(F)cc2F)no1)[C@](O)(Cn1cncn1)c1ccc(F)cc1F	0.0625 (≈ 0.145 µM)	0.125 (≈ 0.289 µM)	0.5 (≈ 1.16 µM)	0.0625 (≈ 0.145 µM)	0.0313 (≈ 0.0724 µM)	2 (≈ 4.63 µM)	0.0625 (≈ 0.145 µM)	0.125 (≈ 0.289 µM)
C[C@@H](c1cc(-c2c(F)cc(F)cc2F)no1)[C@](O)(Cn1cncn1)c1ccc(F)cc1F	0.5 (≈ 1.11 µM)	0.125 (≈ 0.278 µM)	1 (≈ 2.22 µM)	0.25 (≈ 0.555 µM)	0.0625 (≈ 0.139 µM)	2 (≈ 4.44 µM)	0.125 (≈ 0.278 µM)	0.0625 (≈ 0.139 µM)
C[C@@H](c1cc(-c2ccc(OC(F)(F)F)cc2)no1)[C@](O)(Cn1cncn1)c1ccc(F)cc1F	0.125 (≈ 0.26 µM)	0.5 (≈ 1.04 µM)	4 (≈ 8.33 µM)	0.125 (≈ 0.26 µM)	0.0625 (≈ 0.13 µM)	8 (≈ 16.7 µM)	0.0313 (≈ 0.0652 µM)	0.125 (≈ 0.26 µM)
C[C@@H](c1cc(-c2ccc(Cl)cc2F)no1)[C@](O)(Cn1cncn1)c1cc(F)ccc1F	1 (≈ 2.23 µM)	1 (≈ 2.23 µM)	8 (≈ 17.8 µM)	0.5 (≈ 1.11 µM)	0.0313 (≈ 0.0697 µM)	> 8	0.25 (≈ 0.557 µM)	0.125 (≈ 0.279 µM)
C[C@@H](c1cc(-c2ccc(Cl)c(Cl)c2)no1)[C@](O)(Cn1cncn1)c1ccc(F)cc1F	0.5 (≈ 1.07 µM)	0.5 (≈ 1.07 µM)	4 (≈ 8.6 µM)	0.25 (≈ 0.537 µM)	0.25 (≈ 0.537 µM)	> 8	0.0625 (≈ 0.134 µM)	0.25 (≈ 0.537 µM)
